# Where a SMILES comes first, the peptide text is derived from it. The star is where a group is joined. Cbz = O=C(OCc1ccccc1)*
# Legend:
# GFP-FAN1 = experiment: cycloheximide chase, FAN1 protein half-life; type: cell-based, human; details: U2OS eGFP-FAN1 cells, CHX 100 μg/ml, n = 3
# Protocol: If not stated otherwise, cells were lysed in RIPA buffer (50 mM Tris-HCl, pH 7.5, 150 mM NaCl, 1% IGEPAL, 0.5% sodium deoxycholate, 0.1% SDS) supplemented with phosphatase inhibitors (20 mM NaF and 1 mM Na3VO4) and protease inhibitors (1 mM benzamidine and 0.1 mM PMSF), incubated with Benzonase (Merck) for at least 30 min at 4 °C, and clarified by centrifugation. Proteins were resolved by SDS-PAGE and transferred to nitrocellulose membranes. Immunoblots were performed with the indicated antibodies, and proteins were visualized using the Advansta WesternBright ECL reagent and the Fusion Solo S imaging system. Relative protein levels were determined by quantification of the protein of interest band intensity normalized to the loading control with the ImageJ software. […]
# were determined by quantification of FAN1 band intensity (normalized to α-Tubulin) with the ImageJ software. […] 24 h post induction, cells were either mock-treated or treated with CHX (100 μg/ml) for the indicated time points and whole-cell lysates were analysed by immunoblotting (top panel). Relative GFP-FAN1 protein levels were determined by quantification of GFP-FAN1 band intensity (normalized to GAPDH) with the ImageJ software (bottom panel; siCtrl: black square; siUSP7#1: blue triangle; siUSP7#2: cyan inverted triangle). […] Inputs and recovered protein complexes were analysed by immunoblotting. […]
# GFP-FAN1 protein level = experiment: immunoblot of GFP-FAN1 protein levels, U2OS eGFP-FAN1 cells; type: cell-based, human; details: USP7-depleted U2OS eGFP-FAN1 cells, MG-132 10 μM for 6 h
# Protocol: (§1) Fig. 3 USP7 deubiquitinates FAN1 controlling its protein levels. A RPE-1 parental and p53 KO cell lines were transfected with either non-targeting (Ctrl) or USP7 siRNA oligos. 48 h later, whole-cell lysates were analysed by immunoblotting. B Doxycycline-inducible U2OS^eGFP-FAN1 cells were transfected with either non-targeting (Ctrl) or USP7 siRNA oligos. 24 h later, GFP-FAN1 expression was induced with Dox (100 ng/ml) for 24 h and whole-cell lysates were analysed by immunoblotting. C Same cells as in B were induced with Dox (100 ng/ml). 24 h later, cells were either mock-treated with DMSO (–) or treated (+) with either FT671 or GNE-6640 (10 μM) for 24 h and whole-cell lysates were analysed by immunoblotting. D Same cells as in B were transfected with either non-targeting (Ctrl) or USP7 siRNA oligos. […] 24 h post induction, cells were either mock-treated (−) or treated (+) with MG-132 (10 μM) for 6 h and whole-cell lysates were analysed by immunoblotting. […] 24 h post induction, whole-cell lysates were analysed by immunoblotting. […] Inputs and recovered protein complexes were analysed by immunoblotting. […] Inputs and recovered protein complexes were analysed by immunoblotting. […] In (A–E), relative FAN1 protein levels were determined by quantification of FAN1 band intensity (normalized to GAPDH or Lamin B1 loading controls) with the ImageJ software. […]
# FAN1 protein level = experiment: immunoblot of FAN1 protein levels, RPE-1 cells; type: cell-based, human; details: USP7-depleted RPE-1 cells, MG-132 10 μM for 6 h
# Protocol: as §1
# FAN1 = experiment: pull-down of MBP-His-FAN1 by biotin-tagged USP7 fragments; type: binding, human; details: biotin-tagged USP7 fragments 6 µg, MBP-His-FAN1 1 µg
# Protocol: All plasmids were transformed into BL21(DE3)-pBirAcm cells. The cells were grown using a Large-scale EXpression (LEX) bioreactor at 37 °C. Once OD600 reached 0.7, the temperature was reduced to 15 °C. At OD600 0.8-1, expression of biotinylated proteins was induced by adding 25 mg/L biotin and 0.5 mM isopropyl β-d-1-thiogalactopyranoside (IPTG), and growth continued overnight. Cell cultures were harvested by centrifugation at 6500 g, 10 min, 10 °C (JLA8.1000). Pellets were flash-frozen in liquid nitrogen and stored at −80 °C prior to purification. Cell pellets were thawed, diluted with pre-chilled resuspension buffer (20 mM HEPES pH7.4, 500 mM NaCl, 5% (v/v) glycerol, 1 mM TCEP) and supplemented with 3 μg/ml benzonase, 2 mM MgSO4 and 0.8 mM PMSF/benzamidine-HCl. The mixture was homogenized and lysed by sonication, 60 cycles of 5 s pulse followed by 7.5 s rest. Cell lysates were clarified by centrifugation at 40000 g, 1 hr, 10 °C (JLA16.250). […] Protein purity was analysed by SDS-PAGE and identity was confirmed by mass spectrometry. […]
# Transformed clones of chemocompetent BL21 bacteria were picked and inoculated in LB medium supplemented with 50 μg/ml kanamycin, subsequently incubated at 37 °C overnight under agitation at 250 rpm. […] Purity of the protein was assessed by boiling in SDS sample buffer and separating by SDS-PAGE followed by staining using Coomassie Blue. […]
compound,measurement,setting,value
"C[C@@H]1C[C@@H]([C@H](O)CC2CC(=O)NC(=O)C2)C(=O)[C@@H](C)C1 [CHX, cycloheximide]",FAN1 protein half-life,GFP-FAN1,reduced protein half-life
CC(C)C[C@@H](C=O)NC(=O)[C@H](CC(C)C)NC(=O)[C@H](CC(C)C)NC(=O)OCc1ccccc1 [MG132] (Cbz-Leu-Leu-Leu-aldehyde),FAN1 levels with proteasome inhibitor,GFP-FAN1 protein level,FAN1 levels were restored
same,FAN1 levels with proteasome inhibitor,FAN1 protein level,FAN1 levels were restored
TRAF domain: purified recombinant biotin-tagged USP7 fragment,binding of USP7 domain to FAN1 in vitro,FAN1,strongest

# Reference: publication PMC13086964, “USP7 deubiquitinase stabilizes FAN1 to support DNA crosslink repair and suppress CAG repeat expansion” (Nature Communications, 2026)
